For 24 compounds, RatioGI50 and GI50 results are on record in ChEMBL document CHEMBL4251553, “Synthesis, anticancer evaluation and pharmacokinetic study of novel 10-O-phenyl ethers of dihydroartemisinin” (Eur J Med Chem, 2017).

Common to all, as to assay type: functional
Test [1] is described as follows: Selectivity ratio of GI50 for human MCF7 cells to GI50 for human MCF7/ADR cells.
In another test the test system is NCI/ADR-RES. As to the kind of experiment: Antiproliferative activity against human MCF7/ADR cells after 96 hrs by MTT assay.
The test system of the next test is MDA-MB-231. As to the kind of experiment: Antiproliferative activity against human MDA-MB-231 cells after 96 hrs by MTT assay. Conditions: MDA-MB-231, 96 h. For orientation: Tetrazolium dyes change colour on reduction, which living cells bring about.
A further test deals with MCF7. As to the kind of experiment: Antiproliferative activity against human MCF7 cells after 96 hrs by MTT assay. Conditions: MCF7, 96 h.
In the next test the test system is NB-4. As to the kind of experiment: Antiproliferative activity against human NB4 cells after 96 hrs by MTT assay. Conditions: NB-4, 96 h.
For a further test, the system named is PC-3. As to the kind of experiment: Antiproliferative activity against human PC3 cells after 96 hrs by MTT assay. Conditions: PC-3, 96 h.
In another test the test system is LNCaP. As to the kind of experiment: Antiproliferative activity against human LNCAP cells after 96 hrs by MTT assay.
In the next test the test system is HL-60. Nature of the test: Antiproliferative activity against human HL60 cells after 96 hrs by MTT assay. The conditions noted are these: HL-60, 96 h.
Another test has as its system K562. Nature of the test: Antiproliferative activity against human K562 cells after 96 hrs by MTT assay. The conditions noted are these: K562, 96 h.
The test system of a further test is U-937. As to the kind of experiment: Antiproliferative activity against human U937 cells after 96 hrs by MTT assay. Conditions: U-937, 96 h.

Take `COc1ccc(-c2cc(-c3ccc(O[C@H]4O[C@@H]5O[C@@]6(C)CC[C@H]7[C@H](C)CC[C@@H]([C@H]4C)[C@@]57OO6)cc3)n[nH]2)cc1`: in [1], the RatioGI50 came out at 20. The figures for the GI50 in the test with NCI/ADR-RES, in the test on MDA-MB-231 and with MCF7 were 28 nM, 870 nM and 560 nM, respectively.
The corresponding values for `COc1ccc(C2CC(c3ccc(O[C@@H]4O[C@@H]5O[C@@]6(C)CC[C@H]7[C@H](C)CC[C@@H]([C@H]4C)[C@@]57OO6)cc3)=NN2C(C)=O)cc1` (some centres not stated) are 5.9, 51 nM, 990 nM and 300 nM.
The corresponding values for `COc1ccc(C2CC(c3ccc(O[C@H]4O[C@@H]5O[C@@]6(C)CC[C@H]7[C@H](C)CC[C@@H]([C@H]4C)[C@@]57OO6)cc3)=NN2C(C)=O)c(OC)c1` (some centres not stated) are 20, 25 nM, 240 nM and 500 nM.
For `C[C@H]1[C@H](Oc2ccc(-c3cc(-c4ccccc4)[nH]n3)cc2)O[C@@H]2O[C@@]3(C)CC[C@H]4[C@H](C)CC[C@@H]1[C@@]24OO3`, in that order: 13.7, 19 nM, 960 nM and 260 nM.
In the case of `C[C@@H]1CC[C@H]2[C@@H](C)C(O)O[C@@H]3O[C@@]4(C)CC[C@@H]1[C@]32O4` (some centres not stated), the GI50 (commonly the concentration at which growth is held to half of that of the control) in the test on MCF7 is > 400000 nM.
With `CC(=O)N1N=C(c2ccc(O[C@@H]3O[C@@H]4O[C@@]5(C)CC[C@H]6[C@H](C)CC[C@@H]([C@H]3C)[C@@]46OO5)cc2)CC1c1ccc(Br)cc1` (some centres not stated), the RatioGI50 in [1] came to 6.5. In addition, the GI50 turned out to be 150 nM in the test with NCI/ADR-RES, 580 nM in the test on MDA-MB-231 and 980 nM in the test with MCF7.
The corresponding values for `CC(=O)N1N=C(c2ccc(O[C@H]3O[C@@H]4O[C@@]5(C)CC[C@H]6[C@H](C)CC[C@@H]([C@H]3C)[C@@]46OO5)cc2)CC1c1ccc(Br)cc1` (some centres not stated) are 11.5, 26 nM, 370 nM and 300 nM.
Regarding `C[C@H]1[C@@H](O)O[C@@H]2O[C@@]3(C)CC[C@H]4[C@H](C)CC[C@@H]1[C@@]24OO3` [ARTENIMOL], the GI50 in the test with NB-4 was 151 nM; in the test with PC-3 it was > 10000 nM; in the test with LNCaP it was > 10000 nM; in the test with HL-60 it was 191 nM; with MDA-MB-231 it was 12600 nM; in the test with K562 it was > 10000 nM. Further, halving of growth in the test with U-937 (GI50) required 910 nM. Further, in test [1], the RatioGI50 was 10.
In the case of `C[C@H]1[C@@H](Oc2ccc(-c3cc(-c4ccc(Cl)cc4)[nH]n3)cc2)O[C@@H]2O[C@@]3(C)CC[C@H]4[C@H](C)CC[C@@H]1[C@@]24OO3`, the RatioGI50 in test [1] worked out at 3.6. Besides, the GI50 was 55 nM in the test on NCI/ADR-RES, 920 nM in the test with MDA-MB-231 and 190 nM in the test on MCF7.
The corresponding values for `COc1cccc2c1C(=O)c1c(O)c3c(c(O)c1C2=O)C[C@@](O)(C(=O)CO)C[C@@H]3O[C@H]1C[C@H](N)[C@H](O)[C@H](C)O1.Cl` [DOXORUBICIN HYDROCHLORIDE] are 0.1, 540 nM, 120 nM and 54 nM.
For `C[C@H]1[C@H](Oc2ccc(-c3cc(-c4ccc(Br)cc4)[nH]n3)cc2)O[C@@H]2O[C@@]3(C)CC[C@H]4[C@H](C)CC[C@@H]1[C@@]24OO3`, in that order: 14.7, 30 nM, 550 nM and 440 nM.
For `C[C@H]1[C@H](Oc2ccc(-c3cc(-c4ccc(Cl)cc4)[nH]n3)cc2)O[C@@H]2O[C@@]3(C)CC[C@H]4[C@H](C)CC[C@@H]1[C@@]24OO3`, in that order: 14.2, 31 nM, 630 nM and 440 nM.
`CC(=O)N1N=C(c2ccc(O[C@@H]3O[C@@H]4O[C@@]5(C)CC[C@H]6[C@H](C)CC[C@@H]([C@H]3C)[C@@]46OO5)cc2)CC1c1ccc(Cl)cc1` (some centres not stated): the RatioGI50 in [1] came out at 14.3. The GI50 with NCI/ADR-RES turned out to be 35 nM; with MDA-MB-231, 400 nM; in the test on MCF7, 500 nM.
For `C[C@H]1[C@@H](Oc2ccc(-c3cc(-c4ccc(Br)cc4)[nH]n3)cc2)O[C@@H]2O[C@@]3(C)CC[C@H]4[C@H](C)CC[C@@H]1[C@@]24OO3`, in that order: 10.3, 33 nM, 410 nM and 340 nM.
`CC(=O)N1N=C(c2ccc(O[C@H]3O[C@@H]4O[C@@]5(C)CC[C@H]6[C@H](C)CC[C@@H]([C@H]3C)[C@@]46O5)cc2)CC1c1ccccc1` (some centres not stated) registered a GI50 with MCF7 of 11000 nM. This lies in the double-digit micromolar range.
As to `CC(=O)N1N=C(c2ccc(O[C@@H]3O[C@@H]4O[C@@]5(C)CC[C@H]6[C@H](C)CC[C@@H]([C@H]3C)[C@@]46OO5)cc2)CC1c1ccccc1` (some centres not stated), in test [1], the RatioGI50 is reported as 14.2. The GI50 in the test on NCI/ADR-RES was 50 nM; in the test with MDA-MB-231, 1230 nM; with MCF7, 570 nM.
For `COc1ccc(-c2cc(-c3ccc(O[C@@H]4O[C@@H]5O[C@@]6(C)CC[C@H]7[C@H](C)CC[C@@H]([C@H]4C)[C@@]57OO6)cc3)n[nH]2)c(OC)c1`, in that order: 12.2, 41 nM, 760 nM and 500 nM.
The corresponding values for `CC(=O)N1N=C(c2ccc(O[C@H]3O[C@@H]4O[C@@]5(C)CC[C@H]6[C@H](C)CC[C@@H]([C@H]3C)[C@@]46OO5)cc2)CC1c1ccc(Cl)cc1` (some centres not stated) are 7.3, 30 nM, 160 nM and 220 nM.
The corresponding values for `COc1ccc(-c2cc(-c3ccc(O[C@@H]4O[C@@H]5O[C@@]6(C)CC[C@H]7[C@H](C)CC[C@@H]([C@H]4C)[C@@]57OO6)cc3)n[nH]2)cc1` are 8.5, 52 nM, 1420 nM and 440 nM.
On to `CC(=O)N1N=C(c2ccc(O)cc2)CC1c1ccccc1` (configuration not stated), for which the RatioGI50 in test [1] amounted to 0.77. The GI50 amounted to 38000 nM in the test with NCI/ADR-RES and 29100 nM in the test on MCF7.
For the compound `COc1ccc(-c2cc(-c3ccc(O[C@H]4O[C@@H]5O[C@@]6(C)CC[C@H]7[C@H](C)CC[C@@H]([C@H]4C)[C@@]57OO6)cc3)n[nH]2)c(OC)c1`, in test [1], the RatioGI50 amounted to 10. The GI50 is 33 nM with NCI/ADR-RES, 670 nM in the test on MDA-MB-231 and 330 nM in the test with MCF7.
For `COc1ccc(C2CC(c3ccc(O[C@H]4O[C@@H]5O[C@@]6(C)CC[C@H]7[C@H](C)CC[C@@H]([C@H]4C)[C@@]57OO6)cc3)=NN2C(C)=O)cc1` (some centres not stated), in that order: 11.4, 28 nM, 500 nM and 320 nM.
On to `Oc1ccc(-c2cc(-c3ccccc3)n[nH]2)cc1`, for which, in test [1], the RatioGI50 was 1.66. Further, the figures for the GI50 in the test on NCI/ADR-RES and with MCF7 were 18200 nM and 21200 nM, respectively.
As for `COc1ccc(C2CC(c3ccc(O[C@@H]4O[C@@H]5O[C@@]6(C)CC[C@H]7[C@H](C)CC[C@@H]([C@H]4C)[C@@]57OO6)cc3)=NN2C(C)=O)c(OC)c1` (some centres not stated), the RatioGI50 in test [1] came out at 6.6. Further, the GI50 in the test with NCI/ADR-RES amounted to 58 nM; in the test with MDA-MB-231, 580 nM; in the test with MCF7, 380 nM.
